From EP0326329B1, “Quinazoline derivatives useful as insecticides” (Dow AgroSciences LLC, priority 1988, dated 1989)
Where two headings read alike, the source gives them in different places.

How the values were obtained:
Type in all cases: in vivo
[1] = tested on: Erysiphe graminis tritici (powdery mildew); assay: Greenhouse Test 1, foliar spray fungicide screen (POWD MDEW), host wheat; conditions: disease control rating, 400 ppm (+++ at 100 ppm)
[2] = tested on: Pyricularia oryzae (rice blast); conditions: disease control rating, foliar spray, host rice; 400 ppm (+++ at 100 ppm)
[3] = tested on: Puccinia recondita tritici (leaf rust); assay: Greenhouse Test 1, foliar spray fungicide screen (LEAF RUST), host wheat; conditions: disease control rating, 400 ppm (+++ at 100 ppm)
[4] = tested on: Botrytis cinerea (gray mold); assay: Greenhouse Test 1, foliar spray fungicide screen (GRAY MOLD), host grape berries; conditions: disease control rating, 400 ppm (+++ at 100 ppm)
[5] = tested on: Pseudoperonospora cubensis (downy mildew); assay: Greenhouse Test 1, foliar spray fungicide screen (DOWN MDEW), host squash; conditions: disease control rating, 400 ppm (+++ at 100 ppm)
[6] = tested on: Southern corn rootworm (Diabrotica undecimpuctata howardi Barber); assay: Mite/insect screen, soil treatment (CRW); conditions: percent mortality, soil treatment; for mortality at 12 ppm / mortality at 24 ppm: Diabrotica, read-out: CRW RESULTS %
How it was run: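 Five 2–3 instar larvae were placed on dry sandy soil with a presoaked corn seed after the soil had received 1 mL of compound solution and dried 6–12 h; cups were kept capped at 23°C. Mortality (%) and phytotoxicity were read after standard exposure. Formulation: acetone/alcohol with emulsifiers, water-diluted.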

[7] = tested on: southern armyworm (Spodopetra eridania Cramer); assay: Mite/insect screen, sprayed squash leaves (SAW); conditions: percent mortality; for mortality at 200 ppm / mortality at 400 ppm: Spodoptera eridania, read-out: SAW RESULTS %
How it was run: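 Steps: formulate compound in acetone/alcohol 50:50 carrying emulsifiers; dilute with water; spray leaves until runoff on upper and lower surfaces; air-dry one hour; for armyworm, excise two […] leaves into a dish of larvae; after exposure, score mortality and plant injury.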

[8] = tested on: Twospotted spider mites (Tetranychus urticae Koch); assay: Mite/insect screen, sprayed squash cotyledons (SM); conditions: percent mortality; for mortality at 200 ppm / mortality at 400 ppm: Tetranychus urticae, read-out: SM RESULTS %
How it was run: (§1)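 Mortality and phytotoxicity read after standard exposure periods on sprayed squash: cotyledons for melon aphids and twospotted spider mites, excised leaves placed with southern armyworm larvae. Spray solutions were water dilutions of acetone/alcohol stocks containing TOXIMUL R and S emulsifiers, applied to runoff at 10 psi and air-dried one hour.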

[9] = tested on: melon aphids (Aphis gossypii Glover); assay: Mite/insect screen, sprayed squash cotyledons (MA); conditions: percent mortality; for mortality at 200 ppm / mortality at 400 ppm: Aphis gossypii, read-out: MA RESULTS %
How it was run: as §1

[10] = corn rootworm, CRW RATE 24.00 PPM
[11] = Southern armyworm, sprayed squash leaves, RATE 400 PPM
[12] = twospotted spider mites, sprayed squash cotyledons, RATE 400 PPM
[13] = melon aphids, sprayed squash cotyledons, RATE 400 PPM
[14] = corn rootworm, CRW RATE 12.00 PPM
[15] = Southern armyworm, sprayed squash leaves, RATE 200 PPM
[16] = twospotted spider mites, sprayed squash cotyledons, RATE 200 PPM
[17] = melon aphids, sprayed squash cotyledons, RATE 200 PPM

| Compound | POWD MDEW [1] | RICE BLAST [2] | LEAF RUST [3] | GRAY MOLD [4] | DOWN MDEW [5] | mortality at 12 ppm ([6]; CRW rate 12.00 ppm) [%] | mortality at 24 ppm ([6]; CRW rate 24.00 ppm) [%] | mortality at 200 ppm ([7]; spray rate 200 ppm) [%] | mortality at 400 ppm ([7]; spray rate 400 ppm) [%] | mortality at 200 ppm ([8]; spray rate 200 ppm) [%] | mortality at 200 ppm ([9]; spray rate 200 ppm) [%] | mortality at 400 ppm ([9]; spray rate 400 ppm) [%] | mortality at 400 ppm ([8]; spray rate 400 ppm) [%] | mortality at 24 ppm [6, 10] [%] | mortality at 400 ppm [7, 11] [%] | mortality at 400 ppm [8, 12] [%] | mortality at 400 ppm [9, 13] [%] | also measured |
| --- | --- | --- | --- | --- | --- | --- | --- | --- | --- | --- | --- | --- | --- | --- | --- | --- | --- | --- |
| FC(F)(F)c1cccc(Oc2ccc(CCOc3ncnc4ccccc34)cc2)c1 [Example 188, 4-[2-[4-[3-(trifluoromethyl)phenoxy]phenyl]ethoxy]quinazoline] | +++ (+++ = 90-100% control at 100 ppm) | +++ (+++ = 90-100% control at 100 ppm) | +++ (+++ = 90-100% control at 100 ppm) | - (- = 0-19% control at 400 ppm) | +++ (+++ = 90-100% control at 100 ppm) | 0 | 100 | 0 | 80 | 100 | 100 | 80 |  |  |  |  |  |  |
| Cc1ccc2ncnc(NCCc3cccc(Oc4ccccc4)c3)c2c1 [Example 190, 6-methyl-N-[2-(3-phenoxyphenyl)ethyl]-4-quinazolinamine] | +++ (+++ = 90-100% control at 100 ppm) | +++ (+++ = 90-100% control at 100 ppm) | +++ (+++ = 90-100% control at 100 ppm) | - (- = 0-19% control at 400 ppm) | +++ (+++ = 90-100% control at 100 ppm) | 0 | 0 | 0 | 0 | 80 | 40 | 0 | 0 |  |  |  |  |  |
| CC(C)c1ccccc1CCOc1ncnc2c(F)cccc12 [Example 195, 8-fluoro-4-[2-[2-(i-propyl)phenyl]ethoxy]quinazoline] | +++ (+++ = 90-100% control at 100 ppm) | +++ (+++ = 90-100% control at 100 ppm) | +++ (+++ = 90-100% control at 100 ppm) | - (- = 0-19% control at 400 ppm) | ++ (++ = 90-100% control at 400 ppm) | 0 | 0 | 0 | 0 | 0 | 80 | 0 | 0 |  |  |  |  |  |
| FC(F)(F)c1cccc(CCCOc2ncnc3ccccc23)c1 [Example 196, 4-[3-(3-trifluoromethylphenyl)propoxy]quinazoline] | ++ (++ = 90-100% control at 400 ppm) | - (- = 0-19% control at 400 ppm) | - (- = 0-19% control at 400 ppm) | - (- = 0-19% control at 400 ppm) | - (- = 0-19% control at 400 ppm) | 0 | 0 | 0 | 0 | 0 | 0 | 0 | 0 |  |  |  |  |  |
| CCC(COc1ncnc2c(F)cccc12)c1ccc(-c2ccccc2)cc1 (stereo not shown) [Example 197, 8-fluoro-4-[2-(1,1'-biphenyl)-4-ylbutoxy)quinazoline] | + (+ = 20-89% control at 400 ppm) | + (+ = 20-89% control at 400 ppm) | - (- = 0-19% control at 400 ppm) | - (- = 0-19% control at 400 ppm) | - (- = 0-19% control at 400 ppm) | 0 | 0 | 0 | 0 | 80 | 80 | 0 | 0 |  |  |  |  |  |
| Fc1ccccc1Oc1ccc(CCOc2ncnc3c(F)cccc23)cc1 [Example 198, 8-fluoro-4-[2-[4-(2-fluorophenoxy)phenyl]ethoxy]quinazoline] | +++ (+++ = 90-100% control at 100 ppm) | +++ (+++ = 90-100% control at 100 ppm) | +++ (+++ = 90-100% control at 100 ppm) | - (- = 0-19% control at 400 ppm) | +++ (+++ = 90-100% control at 100 ppm) | 0 |  | 100 |  | 100 | 100 |  |  | 0 | 100 | 0 | 0 |  |
| CC(COc1ncnc2c(F)cccc12)c1ccc(-c2ccccc2)cc1 (stereo not shown) [Example 199, 8-fluoro-4-[2-(1,1'-biphenyl)4-ylpropoxy]quinazoline] | +++ (+++ = 90-100% control at 100 ppm) | + (+ = 20-89% control at 400 ppm) | +++ (+++ = 90-100% control at 100 ppm) | - (- = 0-19% control at 400 ppm) | + (+ = 20-89% control at 400 ppm) |  |  |  |  |  |  |  |  | 0 | 60 | 0 | 0 | mortality at 12 ppm [6, 14]: 0%; mortality at 200 ppm [7, 15]: 0%; mortality at 200 ppm [8, 16]: 100%; mortality at 200 ppm [9, 17]: 100% |
| CC(C)(C)c1ccc(CCCCOc2ncnc3c(F)cccc23)cc1 [Example 200, 8-fluoro-4-[4-[4-(t-butyl)phenyl]butoxy]quinazoline] | +++ (+++ = 90-100% control at 100 ppm) | +++ (+++ = 90-100% control at 100 ppm) | + (+ = 20-89% control at 400 ppm) | - (- = 0-19% control at 400 ppm) | +++ (+++ = 90-100% control at 100 ppm) |  |  |  |  |  |  |  |  | 100 | 0 | 100 | 80 | mortality at 12 ppm [6, 14]: 100%; mortality at 200 ppm [7, 15]: 0%; mortality at 200 ppm [8, 16]: 80%; mortality at 200 ppm [9, 17]: 60% |
| [3-(3-methoxyphenyl)propyl]quinazoline [Example 72] | ++ (++ = 90-100% control at 400 ppm) | + (+ = 20-89% control at 400 ppm) | +++ (+++ = 90-100% control at 100 ppm) | - (- = 0-19% control at 400 ppm) | ++ (++ = 90-100% control at 400 ppm) |  |  |  |  |  |  |  |  |  |  |  |  | CRW RESULTS % ([6]; CRW rate 24.00 ppm): 0%; SAW RESULTS % ([7]; spray rate 400 ppm): 100%; SM RESULTS % ([8]; spray rate 400 ppm): 0%; MA RESULTS % ([9]; spray rate 400 ppm): 0% |
